Reference: US10125135B2, “Chemical compounds” (AstraZeneca AB, priority 2016, dated 2018)

Columns and labels:
[1] = biological target: ERα receptor in MCF-7 human ductal carcinoma breast cell line (Homo sapiens (Human), UniProt P03372); experiment: MCF-7 ER down regulation assay (immuno-fluorescence); assay type: cell-based; details: MCF-7 cells; for DC50: 18-22 hours incubation, read-out: ER down regulation IC50 value
Protocol: MCF-7 ER Down Regulation Assay
The ability of compounds to down-regulate Estrogen Receptor (ER) numbers was assessed in a cell based immuno-fluorescence assay using the MCF-7 human ductal carcinoma breast cell line. MCF-7 cells were revived directly from a cryovial (approx 5×10^6 cells) in Assay Medium (phenol red free Dulbecco's Modified Eagle's medium (DMEM) (Sigma D5921) containing 2mM L-Glutamine and 5% (v/v) Charcoal/Dextran treated foetal calf serum. Cells were syringed once using a sterile 18 G×1.5 inch (1.2×40 mm) broad gauge needle and cell density was measured using a Coulter Counter (Beckman). Cells were further diluted in Assay Medium to a density of 3.75×10^4 cells per mL and 40 μL per well added to transparent bottomed, black, tissue culture treated 384 well plates (Costar, No. 3712) using a Thermo Scientific Matrix WellMate or Thermo Multidrop. Following cell seeding, plates were incubated overnight at 37° C., 5% CO2 (Liconic carousel incubator). Test data was generated using the LabCyte Echo™ model 555 compound reformatter which is part of an automated workcell (Integrated Echo 2 workcell). 10 mM compound stock solutions of the test compounds were used to generate a 384 well compound dosing plate (Labcyte P-05525-CV1). […] 40 μΛ of DMSO added to wells in row P on the source plate allow for DMSO normalisation across the dose range. To dose the control wells 40 μL of DMSO was added to row O1 and 40 μL of 100 μM fulvestrant in DMSO was added to row O3 on the compound source plate. […] Compounds were dispensed onto the cell plates with a compound source plate prepared as above producing a 12 pt duplicate 3 μM to 3 pM dose range with 3 fold dilutions and one final 10 fold dilution using the Integrated Echo 2 workcell. […] Cells were fixed at room temperature for 20 mins before being washed two times with 250 μL PBS/Proclin (PBS with a Biocide preservative) using a BioTek platewasher, 40 μL of PBS/Proclin was then added to all wells and the plates stored at 4° C. The fixing method described above was carried out on the Integrated Echo 2 workcell. Immunostaining was performed using an automated AutoElisa workcell. The PBS/Proclin was aspirated from all wells and the cells permeabilised with 40 μL PBS containing 0.5% Tween™ 20 (v/v) for 1 hour at room temperature. The plates were washed three times in 250 μL of PBS/0.05% (v/v) Tween 20 with Proclin (PBST with a Biocide preservative) and then 20 μL of ERα (SP1) Rabbit monoclonal antibody (Thermofisher) 1:1000 in PBS/Tween™/3% (w/v) Bovine Serum Albumin was added. The plates were incubated overnight at 4° C. (Liconic carousel incubator) and then washed three times in 250 μL of PBS/0.05% (v/v) Tween™ 20 with Proclin (PBST). The plates were then incubated with 20 μL/well of a goat anti-rabbit IgG AlexaFluor 594 or goat anti-rabbit AlexaFluor 488 antibody (Molecular Probes) with Hoechst at 1:5000 in PBS/Tween™/3% (w/v) Bovine Serum Albumin for lhour at room temperature. The plates were then washed three times in 250 μL of PBS/0.05% (v/v) Tween™ 20 with Proclin (PBST with a Biocide preservative). 20 μL of PBS was added to each well and the plates covered with a black plate seal and stored at 4° C. before being read. Plates were read using a Cellomics Arrayscan reading the 594 nm (24 hr time point) or 488 nm (5 hr timepoint) fluorescence to measure the ERα receptor level in each well. The mean total intensity was normalized for cell number giving the total intensity per cell.

[2] = Human hepatocyte assay (metabolic stability); assay type: in vitro ADME; details: human hepatocytes, 37° C., 1.0×10^6 viable cells/mL; read-out: Clint (in vitro intrinsic clearance)
Protocol: The metabolic stability of compounds in human hepatocytes was assessed using the following protocol: • 1. Prepare 10 mM stock solutions of compound and control compounds in appropriate solvent (DMSO). Place incubation medium (L-15Medium) in a 37° C. water bath, and allow warming for at least 15 minutes prior to use. • 2. Add 80 μL of acetonitrile to each well of the 96-well deep well plate (quenching plate). • 3. In a new 96-well plate, dilute the 10 mM test compounds and the control compounds to 100 μM by combining 198 μL of acetonitrile and 2 μL of 10 mM stock. • 4. Remove a vial of cryopreserved (less than −150° C.) human hepatocytes (LiverPool™ 10 Donor Human hepatocytes obtained from Celsis IVT. Chicago, Ill. (Product No. S01205)) from storage, ensuring that vials remain at cryogenic temperatures until thawing process ensues. As quickly as possible, thaw the cells by placing the vial in a 37° C. water bath and gently shaking the vials. Vials should remain in water bath until all ice crystals have dissolved and are no longer visible. After thawing is completed, spray vial with 70% ethanol, transfer the vial to a bio-safety cabinet. • 5. Open the vial and pour the contents into the 50 mL conical tube containing thawing medium. Place the 50 mL conical tube into a centrifuge and spin at 100 g for 10 minutes. […] Using Cellometer® Vision, count cells and determine the viable cell density. Cells with poor viability (<80% viability) are not acceptable for use. Dilute cells with incubation medium to a working cell density of 1.0×10^6 viable cells/mL. • 7. Transfer 247.5 μL of hepatocytes into each well of a 96-well cell culture plate. Place the plate on Eppendorf Thermomixer Comfort plate shaker to allow the hepatocytes to warm for 10 minutes. • 8. Add 2.5 μL of 100 μM test compound or control compounds into an incubation well containing cells, mix to achieve a homogenous suspension at 0.5 min, which when achieved, will define the 0.5 min time point. At the 0.5 min time, transfer 20 μL incubated mixture to wells in a “Quenching plate” followed by vortexing. • 9. Incubate the plate at 37° C. at 900 rpm on an Eppendorf Thermomixer Comfort plate shaker. At 5, 15, 30, 45, 60, 80, 100 and 120 min, mix the incubation system and transfer samples of 20 μL incubated mixture at each time point to wells in a separate “Quenching plate” followed by vortexing. • 10. Centrifuge the quenching plates for 20 minutes at 4,000 rpm. 4 different compounds are pooled into one cassette and used for LC/MS/MS analysis.
All calculations are carried out using Microsoft Excel. Peak areas are determined from extracted ion chromatograms. In vitro intrinsic clearance (in vitro Clint, in μL/min/10^6 cells) of parent compound is determined by regression analysis of the Ln percent parent disappearance vs. time curve. The in vitro intrinsic clearance (in vitro Clint, in μL/min/10^6 cells) is determined from the slope value using the following equation and is shown in Table C:
V=incubation volume (0.25 mL);
N=number of hepatocytes per well (0.25×10 ^6 cells).

Chain of ERα receptor in MCF-7 human ductal carcinoma breast cell line (P03372 whole entry): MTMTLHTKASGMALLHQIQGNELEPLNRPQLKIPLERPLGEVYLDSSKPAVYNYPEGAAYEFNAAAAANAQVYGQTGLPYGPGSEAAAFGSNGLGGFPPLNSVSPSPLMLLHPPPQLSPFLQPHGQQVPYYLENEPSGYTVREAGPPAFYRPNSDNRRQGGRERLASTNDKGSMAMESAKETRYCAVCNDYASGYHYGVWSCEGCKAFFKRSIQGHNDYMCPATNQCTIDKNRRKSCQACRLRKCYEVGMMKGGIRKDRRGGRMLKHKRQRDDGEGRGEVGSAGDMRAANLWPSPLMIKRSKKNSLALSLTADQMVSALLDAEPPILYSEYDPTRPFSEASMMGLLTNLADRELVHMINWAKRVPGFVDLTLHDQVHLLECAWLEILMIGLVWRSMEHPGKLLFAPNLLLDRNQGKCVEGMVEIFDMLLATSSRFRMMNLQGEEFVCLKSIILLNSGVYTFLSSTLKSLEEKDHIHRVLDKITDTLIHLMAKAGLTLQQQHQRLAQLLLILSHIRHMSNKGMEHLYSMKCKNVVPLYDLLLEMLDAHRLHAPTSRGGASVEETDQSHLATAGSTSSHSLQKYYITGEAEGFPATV

Structure (SMILES): C[C@@H]1Cc2c(ccc3[nH]ncc23)[C@@H](c2c(F)cc(OCCN3CC(CF)C3)cc2F)N1CC(C)(C)F [Example 1, (6S,8R)-6-(2,6-difluoro-4-(2-(3-(fluoromethyl)azetidin-1-yl)ethoxy)phenyl)-7-(2-fluoro-2-methylpropyl)-8-methyl-6,7,8,9-tetrahydro-3H-pyrazolo[4,3-f]isoquinoline]
- DC50 [1]: 0.097 nM
- hepatocyte CLint at 1 µM [2]: 8 µL/min/1e6 cells

Structure (SMILES): C[C@@H]1Cc2c(ccc3[nH]ncc23)[C@@](C)(c2ccc(OCCN3CC(CF)C3)cc2)N1CC1(F)CC1 [Example 30, (6R,8R)-7-((1-fluorocyclopropyl)methyl)-6-(4-(2-(3-(fluoromethyl)azetidin-1-yl)ethoxy)phenyl)-6,8-dimethyl-6,7,8,9-tetrahydro-3H-pyrazolo[4,3-f]isoquinoline]
- DC50 [1]: 0.087 nM
- hepatocyte CLint at 1 µM [2]: 13 µL/min/1e6 cells

Structure (SMILES): C[C@@H]1Cc2c(ccc3[nH]ncc23)[C@@H](c2ccc(OCCN3CC(CF)C3)cc2)N1CC1(F)CC1 [Example 29, (6R,8R)-7-((1-fluorocyclopropyl)methyl)-6-(4-(2-(3-(fluoromethyl)azetidin-1-yl)ethoxy)phenyl)-8-methyl-6,7,8,9-tetrahydro-3H-pyrazolo[4,3-f]isoquinoline]
- DC50 [1]: 0.35 nM
- hepatocyte CLint at 1 µM [2]: 12 µL/min/1e6 cells

Structure (SMILES): CC(C)(F)CN1[C@H](c2c(F)cc(OCCN3CC(CF)C3)cc2F)c2ccc3[nH]ncc3c2C[C@H]1C(F)F [Example 3, (6S,8S)-6-(2,6-difluoro-4-(2-(3-(fluoromethyl)azetidin-1-yl)ethoxy)phenyl)-8-(difluoromethyl)-7-(2-fluoro-2-methylpropyl)-6,7,8,9-tetrahydro-3H-pyrazolo[4,3-f]isoquinoline]
- DC50 [1]: 0.16 nM
- hepatocyte CLint at 1 µM [2]: 16 µL/min/1e6 cells

Structure (SMILES): CC(C)CN1[C@H](c2ccc(OCCN3CC(CF)C3)cc2)c2ccc3[nH]ncc3c2C[C@H]1C [Example 28, (6R,8R)-6-(4-(2-(3-(fluoromethyl)azetidin-1-yl)ethoxy)phenyl)-7-isobutyl-8-methyl-6,7,8,9-tetrahydro-3H-pyrazolo[4,3-f]isoquinoline]
- DC50 [1]: 0.14 nM
- hepatocyte CLint at 1 µM [2]: 8 µL/min/1e6 cells

Structure (SMILES): C[C@@H]1Cc2c(ccc3[nH]ncc23)[C@@H](c2ccc(OCCN3CC(CF)C3)cc2)N1CC1(F)COC1 [Example 31, (6R,8R)-6-(4-(2-(3-(fluoromethyl)azetidin-1-yl)ethoxy)phenyl)-7-((3-fluorooxetan-3-yl)methyl)-8-methyl-6,7,8,9-tetrahydro-3H-pyrazolo[4,3-f]isoquinoline]
- DC50 [1]: 0.2 nM
- hepatocyte CLint at 1 µM [2]: 38 µL/min/1e6 cells

Structure (SMILES): CC(C)(F)CN1[C@H](C(F)F)Cc2c(ccc3[nH]ncc23)[C@@]1(C)c1c(F)cc(OCCN2CC(CF)C2)cc1F [Example 4, (6S,8S)-6-(2,6-difluoro-4-(2-(3-(fluoromethyl)azetidin-1-yl)ethoxy)phenyl)-8-(difluoromethyl)-7-(2-fluoro-2-methylpropyl)-6-methyl-6,7,8,9-tetrahydro-3H-pyrazolo[4,3-f]isoquinoline]
- DC50 [1]: 0.16 nM
- % downregulation (in brackets) in ER down regulation assay ([1]; >90% unless otherwise stated): 80%
- hepatocyte CLint at 1 µM [2]: 10 µL/min/1e6 cells

Structure (SMILES): C[C@@H]1Cc2c(ccc3[nH]ncc23)[C@@H](c2c(F)cc(OCCN3CC(C(F)F)C3)cc2F)N1CC(C)(C)F [Example 38, (6S,8R)-6-(4-(2-(3-(difluoromethyl)azetidin-1-yl)ethoxy)-2,6-difluorophenyl)-7-(2-fluoro-2-methylpropyl)-8-methyl-6,7,8,9-tetrahydro-3H-pyrazolo[4,3-f]isoquinoline]
- DC50 [1]: 0.26 nM
- hepatocyte CLint at 1 µM [2]: 15 µL/min/1e6 cells

Structure (SMILES): CC(C)CN1[C@H](c2c(F)cc(OCCN3CC(CF)C3)cc2F)c2ccc3[nH]nc(F)c3c2C[C@H]1C [Example 44, (6S,8R)-6-(2,6-difluoro-4-(2-(3-(fluoromethyl)azetidin-1-yl)ethoxy)phenyl)-1-fluoro-7-isobutyl-8-methyl-6,7,8,9-tetrahydro-3H-pyrazolo[4,3-f]isoquinoline]
- DC50 [1]: 0.42 nM

Structure (SMILES): COc1cc(OCCN2CC(CF)C2)cc(F)c1[C@@H]1c2ccc3[nH]ncc3c2C[C@@H](C)N1CC(C)(F)F [Example 25, (6S,8R)-7-(2,2-difluoropropyl)-6-(2-fluoro-4-(2-(3-(fluoromethyl)azetidin-1-yl)ethoxy)-6-methoxyphenyl)-8-methyl-6,7,8,9-tetrahydro-3H-pyrazolo[4,3-f]isoquinoline]
- DC50 [1]: 0.11 nM

Structure (SMILES): C[C@@H]1Cc2c(ccc3[nH]ncc23)[C@@H](c2c(F)cc(OCCN3CC(CF)C3)cc2F)N1CC(F)CF (single isomer, unassigned) [Example 35]
- DC50 [1]: 0.26 nM

Structure (SMILES): CC(C)CN1[C@H](c2c(F)cc(OCCN3CC(CF)C3)cc2F)c2ccc3[nH]ncc3c2C[C@H]1C [Example 33, (6S,8R)-6-(2,6-difluoro-4-(2-(3-(fluoromethyl)azetidin-1-yl)ethoxy)phenyl)-7-isobutyl-8-methyl-6,7,8,9-tetrahydro-3H-pyrazolo[4,3-f]isoquinoline]
- DC50 [1]: 0.21 nM
- hepatocyte CLint at 1 µM [2]: 9 µL/min/1e6 cells

Structure (SMILES): COc1nc(OCCN2CC(CF)C2)ccc1[C@@H]1c2ccc3[nH]ncc3c2C[C@@H](C)N1CC1(F)CC1 [Example 46, (6S,8R)-7-((1-fluorocyclopropyl)methyl)-6-(6-(2-(3-(fluoromethyl)azetidin-1-yl)ethoxy)-2-methoxypyridin-3-yl)-8-methyl-6,7,8,9-tetrahydro-3H-pyrazolo[4,3-f]isoquinoline]
- DC50 [1]: 0.14 nM

Structure (SMILES): C[C@@H]1Cc2c(ccc3[nH]ncc23)[C@@H](c2ncc(OCCN3CC(CF)C3)cc2F)N1CC(F)F [Example 48, (6S,8R)-7-(2,2-difluoroethyl)-6-(3-fluoro-5-(2-(3-(fluoromethyl)azetidin-1-yl)ethoxy)pyridin-2-yl)-8-methyl-6,7,8,9-tetrahydro-3H-pyrazolo[4,3-f]isoquinoline]
- DC50 [1]: 1.9 nM
